# Columns and labels:
# [1] = test system: PCSK9 mRNA expression in HepG2 cells; assay: PCSK9 mRNA expression in HepG2 cells, quantitative real-time RT-PCR; type: cell-based, Human; conditions: 24 hours, indicated concentrations (FIG. 19B)
# Description: The effects of compounds of Formula I, II, III, and IV on the inhibition of PCSK9 mRNA expression was examined (Horton J D, Cohen J C, Hobbs H H. “Molecular biology of PCSK9: its role in LDL metabolism” TRENDS in Biochemical Sciences 2007; 32:71-77; Cameron J, Ranheim T, Kulseth M A, Leren T P, Berge K E. “Berberine decreases PCSK9 expression in HepG2 cells” Atherosclerosis, 2008 online publication). HepG2 cells were treated with new compounds individually at 10 uM dose for 24 hours. Total RNA was harvested for quantitative real-time RT-PCR analysis using method described in Example 16B. The fold activity was derived by dividing the amount of normalized PCSK9 mRNA in compound-treated cells over the amount of PCSK9 mRNA in untreated control cells. In these experiments, berberine chloride (10 uM) was included for comparison (see FIG. 18).
# Total RNA was harvested for quantitative real-time RT-PCR analysis using method described in Examples 16B. The fold activity was derived by dividing the amount of normalized LDLR or PCSK9 mRNA in compound-treated cells over the amount of LDLR or PCSK9 mRNA in untreated control cells.
# [2] = test system: LDLR mRNA expression in HepG2 cells; assay: LDLR mRNA expression in HepG2 cells, quantitative real-time RT-PCR; type: cell-based, Human; conditions: 24 hours, indicated concentrations (FIG. 19A)
# Description: In yet another experiment, HepG2 cells were treated with various compounds for 24 hours at the indicated doses. Total RNA was isolated and 2 μg was used to generate cDNA in a reaction containing random primers and M-MLV at 37° C. for 1 hour in a volume of […] Real-time PCR was performed on the cDNA using MCEP REALPLEX 2 SYSTEM (Eppendorf) and Universal MasterMix (Applied Biosystems). Human LDLR and GAPDH Pre-Developed TaqMan Assay Reagents (Applied Biosystems) were used to assess the levels of mRNA expressions in HepG2. The levels of LDLR mRNA were normalized to that of GAPDH. Each RNA samples was assayed in triplicate. The abundance of LDLR mRNA in untreated cells was defined as 1, and the amounts of LDLR mRNA from compound-treated cells were plotted relative to that value in FIG. 13. The data shown are mean±s.d.
# Activities of some compounds of Formulas I, II, III, and IV on LDLR mRNA expression were determined. HepG2 cells were treated with new compounds individually at a dose less than or equal to 10 μM for 24 hours. Total RNA was harvested for quantitative real-time RT-PCR analysis using the method described in Example 16B. […] In these experiments, berberine chloride was included for comparison.
# Quantitative real-time RT-PCR was conducted, and triplicate was assayed in each RNA sample. The data are mean value of triplicates.
# Total RNA was harvested for quantitative real-time RT-PCR analysis using method described in Examples 16B.
smiles,measurement,setting,value
"COc1cc2c(cc1OC)C1Cc3ccc(OC)c(OS(=O)(=O)c4ccccc4)c3CN1CC2 (centres unmarked) [Compound 91, 2,3,10-trimethoxy-5,6,7,8,13,13a-hexahydroiso-quinolino[2,1-b]isoquinolin-9-yl benzenesulfonate]",PCSK9 mRNA expression,[1],inhibits
same,LDLR mRNA expression,[2],dose-dependently increases
